Results: patent US20210156844A1, “TMEM16A Modulation for Diagnostic or Therapeutic Use in Pulmonary Hypertension (PH)” (Bayer Aktiengesellschaft, priority 2017, published 2021)

Assays:
[1] = test system: U-46619 preconstricted isolated mouse PA; assay: Measurement of pulmonary artery tone ex vivo; conditions: cumulatively increasing concentrations 0.1 to 30 μM; U-46619 30 nM
Procedure: Pulmonary artery rings were isolated from male C57BL/6J mice (20-25 weeks old, Charles River, Wilmington Mass., USA), as described by Jain et al. (Jain, P P, et al., Int. J. Nanomedicine (2014) 9, 3249-3261). Following stable contraction (approx. 30 minutes post-addition of U-46619, 30 nM), the arteries were subjected to cumulatively increasing concentrations (0.1 to 30 μM) of the TMEM6A blockers T16Ainh-A01 (Tocris) and benzbromarone (Sigma) in order to analyze the concentration-response relationships.

PASMC = assay: Membrane potential (Em) measurement, current clamp, primary PASMC; format: cell-based, human; conditions: BBR 30 μM, T16Ainh-A01 10 μM
Procedure: PASMC were grown on glass coverslips and serum starved for 24-48 hours. The coverslips were perfused with a bath solution composed of (in mM) NaCl 141, KCl 4.7, HEPES 10, glucose 10, CaCl2 1.8, MgCl2 1.2, pH 7.4 (NaOH) at room temperature. Micropipettes were pulled of borosilicate glass capillaries (GC150F-10, Harvard Apparatus Ltd, Edenbridge, Kent, UK) with a P-2000 electrode puller (Sutter Instruments, Novato Ca, USA), and fire polished using a micro-forge (MF-830, Narishige, Tokyo, Japan) to give a final resistance of 3-5 MΩ when filled with the pipette solution (composition in mM: NaCl 10, KCl 125, K2ATP 5, HEPES 10, EGTA 5, MgCl2 4, pH set to 7.2 with KOH). Em was measured with a HEKA EPC10 patch clamp amplifier (Dr. Schulze GmbH, Lambrecht, Germany) in the current clamp mode as described by others (Mason, M J, et al., Biophys. J. (2005) 88, 739-750; Perkins, KL, J. Neurosci. Methods (2006) 154, 1-18).
The liquid junction potential was calculated with the Clampex 10.0 software (Molecular Devices, Sunnyvale Calif., USA) and an online correction was made for each recording. Both at baseline and during perfusion with 30 μM benzbromarone (BBR, Sigma, St Louis Mo., USA) or 10 μM T16Ainh-A01 (Tocris, Bristol, UK), only those recordings in which (1) the Em was constant for at least 3 minutes, and (2) the seal resistance was constantly high (>5 GΩ) were used for the analyses.
The HEK-293 cells were transfected overnight either with the CLCA1 gene containing or with the empty plasmid, using the Effectene transfection reagent kit (Qiagen) and DMEM F-12 complete medium. On the next day, the medium was changed to serum-free SMC Medium. The resulting conditioned media were collected 24 hours later and applied on the PASMC of healthy donors. After 24 hours of incubation, the Em of the PASMC was measured as described above. To confirm the presence of CLCA1 in the conditioned medium, 20 μL of conditioned medium as well as control medium (collected from cells transfected with the empty plasmide) were analyzed with western blot as described above, using a CLCA1 antibody (ab108851, Abcam).

SMILES: CCc1c(C)nc(SCC(=O)Nc2nc(-c3ccc(OC)cc3)cs2)[nH]c1=O [T16Ainh-A01, 2-[(5-Ethyl-1,6-dihydro-4-methyl-6-oxo-2-pyrimidinyl)thio]-N-[4-(4-methoxyphenyl)-2-thiazolyl]-acetamide]
- vasorelaxation of preconstricted PA [1]: dose-dependent vasorelaxation
- reversal of the Em of IPAH-PASMC to the levels of PASMC isolated from healthy donors (PASMC; PASMC of IPAH patients): close
- effect on Em of PASMC of donors (PASMC; PASMC of healthy donors): no effect
